Reference: PMC12102759 (Protein Science : A Publication of the Protein Society, 2025)

What follows are sequences tested on G3BP1 NFT2. Settings: library DMS-CoV; bait G3BP1 NFT2; prey N; peptide APRITFGGPSDSTGSN; listed as aa = residue placed at this position; column sums to 1.
Type: binding, human

Row | Sequence | DMS PSSM value, R (position 3) | DMS PSSM value, F (position 6) | DMS PSSM value, T (position 13) | DMS PSSM value, A (position 1) | DMS PSSM value, S (position 15) | DMS PSSM value, S (position 10) | DMS PSSM value, S (position 12) | DMS PSSM value, P (position 2) | DMS PSSM value, G (position 14) | DMS PSSM value, T (position 5)
1 | APRITFGGPSDSTGSN R3L (APLITFGGPSDSTGSN) | 0.2826 | – | – | – | – | – | – | – | – | –
2 | APRITFGGPSDSTGSN F6Q (APRITQGGPSDSTGSN) | – | 0 | – | – | – | – | – | – | – | –
3 | APRITFGGPSDSTGSN T13M (APRITFGGPSDSMGSN) | – | – | 0.06406 | – | – | – | – | – | – | –
4 | APRITFGGPSDSTGSN A1N (NPRITFGGPSDSTGSN) | – | – | – | 0.016 | – | – | – | – | – | –
5 | APRITFGGPSDSTGSN S15T (APRITFGGPSDSTGTN) | – | – | – | – | 0.008335 | – | – | – | – | –
6 | APRITFGGPSDSTGSN T13Q (APRITFGGPSDSQGSN) | – | – | 0.01432 | – | – | – | – | – | – | –
7 | APRITFGGPSDSTGSN S10Q (APRITFGGPQDSTGSN) | – | – | – | – | – | 0.008177 | – | – | – | –
8 | APRITFGGPSDSTGSN F6R (APRITRGGPSDSTGSN) | – | 0 | – | – | – | – | – | – | – | –
9 | APRITFGGPSDSTGSN S12A (APRITFGGPSDATGSN) | – | – | – | – | – | – | 0.01432 | – | – | –
10 | APRITFGGPSDSTGSN R3Y (APYITFGGPSDSTGSN) | 0.03984 | – | – | – | – | – | – | – | – | –
11 | APRITFGGPSDSTGSN P2N (ANRITFGGPSDSTGSN) | – | – | – | – | – | – | – | 0 | – | –
12 | APRITFGGPSDSTGSN G14E (APRITFGGPSDSTESN) | – | – | – | – | – | – | – | – | 0.002668 | –
13 | APRITFGGPSDSTGSN T5G (APRIGFGGPSDSTGSN) | – | – | – | – | – | – | – | – | – | 0
14 | APRITFGGPSDSTGSN F6N (APRITNGGPSDSTGSN) | – | 0 | – | – | – | – | – | – | – | –
15 | APRITFGGPSDSTGSN T13V (APRITFGGPSDSVGSN) | – | – | 0.7895 | – | – | – | – | – | – | –
16 | APRITFGGPSDSTGSN S15M (APRITFGGPSDSTGMN) | – | – | – | – | 0.006693 | – | – | – | – | –
17 | APRITFGGPSDSTGSN G14T (APRITFGGPSDSTTSN) | – | – | – | – | – | – | – | – | 0.007708 | –
18 | APRITFGGPSDSTGSN P2G (AGRITFGGPSDSTGSN) | – | – | – | – | – | – | – | 0 | – | –
19 | APRITFGGPSDSTGSN G14I (APRITFGGPSDSTISN) | – | – | – | – | – | – | – | – | 0.0004999 | –

Row | Sequence | DMS PSSM value, R (position 3) | DMS PSSM value, F (position 6) | DMS PSSM value, T (position 13) | DMS PSSM value, A (position 1) | DMS PSSM value, S (position 15) | DMS PSSM value, S (position 10) | DMS PSSM value, S (position 12) | DMS PSSM value, P (position 2) | DMS PSSM value, G (position 14) | DMS PSSM value, T (position 5)
20 | APRITFGGPSDSTGSN G14R (APRITFGGPSDSTRSN) | – | – | – | – | – | – | – | – | 0.002725 | –
21 | APRITFGGPSDSTGSN F6H (APRITHGGPSDSTGSN) | – | 0 | – | – | – | – | – | – | – | –
22 | APRITFGGPSDSTGSN A1V (VPRITFGGPSDSTGSN) | – | – | – | 0.004383 | – | – | – | – | – | –
23 | APRITFGGPSDSTGSN T5K (APRIKFGGPSDSTGSN) | – | – | – | – | – | – | – | – | – | 0
24 | APRITFGGPSDSTGSN T13A (APRITFGGPSDSAGSN) | – | – | 0.02642 | – | – | – | – | – | – | –
25 | APRITFGGPSDSTGSN S15F (APRITFGGPSDSTGFN) | – | – | – | – | 0.2174 | – | – | – | – | –
26 | APRITFGGPSDSTGSN R3P (APPITFGGPSDSTGSN) | 0.2686 | – | – | – | – | – | – | – | – | –
27 | APRITFGGPSDSTGSN T13K (APRITFGGPSDSKGSN) | – | – | 0 | – | – | – | – | – | – | –
28 | APRITFGGPSDSTGSN A1I (IPRITFGGPSDSTGSN) | – | – | – | 0.004309 | – | – | – | – | – | –
29 | APRITFGGPSDSTGSN S15I (APRITFGGPSDSTGIN) | – | – | – | – | 0.3514 | – | – | – | – | –
30 | APRITFGGPSDSTGSN S15V (APRITFGGPSDSTGVN) | – | – | – | – | 0.03856 | – | – | – | – | –
31 | APRITFGGPSDSTGSN F6P (APRITPGGPSDSTGSN) | – | 0 | – | – | – | – | – | – | – | –
32 | APRITFGGPSDSTGSN F6D (APRITDGGPSDSTGSN) | – | 0 | – | – | – | – | – | – | – | –
33 | APRITFGGPSDSTGSN S10W (APRITFGGPWDSTGSN) | – | – | – | – | – | 0 | – | – | – | –
34 | APRITFGGPSDSTGSN P2W (AWRITFGGPSDSTGSN) | – | – | – | – | – | – | – | 0 | – | –
35 | APRITFGGPSDSTGSN S12D (APRITFGGPSDDTGSN) | – | – | – | – | – | – | 0 | – | – | –
36 | APRITFGGPSDSTGSN R3M (APMITFGGPSDSTGSN) | 0.03758 | – | – | – | – | – | – | – | – | –
37 | APRITFGGPSDSTGSN P2A (AARITFGGPSDSTGSN) | – | – | – | – | – | – | – | 0.004798 | – | –
38 | APRITFGGPSDSTGSN T5L (APRILFGGPSDSTGSN) | – | – | – | – | – | – | – | – | – | 0.04693

Same assay, conditions: library DMS-CoV; bait G3BP1 NFT2; prey N; peptide APRITFGGPSDSTGSN; listed as aa = residue placed at this position; column sums to 1

Row | Sequence | DMS PSSM value, G (position 8) | DMS PSSM value, D (position 11) | DMS PSSM value, G (position 7) | DMS PSSM value, P (position 9)
39 | APRITFGGPSDSTGSN G8L (APRITFGLPSDSTGSN) | 0.0001736 | – | – | –
40 | APRITFGGPSDSTGSN D11Q (APRITFGGPSQSTGSN) | – | 0.007406 | – | –
41 | APRITFGGPSDSTGSN G8N (APRITFGNPSDSTGSN) | 0 | – | – | –
42 | APRITFGGPSDSTGSN G7V (APRITFVGPSDSTGSN) | – | – | 0 | –
43 | APRITFGGPSDSTGSN D11K (APRITFGGPSKSTGSN) | – | 0 | – | –
44 | APRITFGGPSDSTGSN G7Y (APRITFYGPSDSTGSN) | – | – | 0 | –
45 | APRITFGGPSDSTGSN D11V (APRITFGGPSVSTGSN) | – | 0.02861 | – | –
46 | APRITFGGPSDSTGSN G8Y (APRITFGYPSDSTGSN) | 0.02437 | – | – | –
47 | APRITFGGPSDSTGSN D11S (APRITFGGPSSSTGSN) | – | 0.01892 | – | –
48 | APRITFGGPSDSTGSN G7L (APRITFLGPSDSTGSN) | – | – | 0 | –
49 | APRITFGGPSDSTGSN D11H (APRITFGGPSHSTGSN) | – | 0.001494 | – | –
50 | APRITFGGPSDSTGSN P9W (APRITFGGWSDSTGSN) | – | – | – | 0
